Results as given in patent US9149038B2, “4-amino-6-(heterocyclic)picolinates and 6-amino-2-(heterocyclic)pyrimidine-4-carboxylates and their use as herbicides” (Dow AgroSciences LLC, priority 2013, dated 2015).
Where two headings read alike, the source gives them in different places.

System: Direct Seeded Rice and weed species
Experiment: Postemergence herbicidal activity in direct seeded rice, visual rating after 20-22 days and probit GR20/GR50/GR80/GR90 (Table 14)
Format: in vivo
Settings: for pest or weed control at 17.5 g/ha / pest or weed control at 35 g/ha / pest or weed control at 70 g/ha: post-emergence, 504 h, postemergence; for pest or weed control at 17.5 g/ha: 17.5 g ai/ha; for pest or weed control at 35 g/ha: 35 g ai/ha; for pest or weed control at 70 g/ha: 70 g ai/ha
From the text: Herbicidal evaluations were made visually on a scale of 0 to 100 where 0 represents no activity and 100 represents complete plant death. Seeds or nutlets of the desired test plant species were planted in a soil matrix prepared by mixing a loam soil (43 percent silt, 19 percent clay, and 38 percent sand, with a pH of about 8.1 and an organic matter content of about 1.5 percent) and river sand in an 80 to 20 ratio. The soil matrix was contained in plastic pots with a surface area of 139.7 cm^2. When required to ensure good germination and healthy plants, a fungicide treatment and/or other chemical or physical treatment was applied. The plants were grown for 10-17 d in a greenhouse with an approximate 14-h photoperiod which was maintained at about 29° C. during the day and 26° C. during the night. Nutrients and water were added on a regular basis and supplemental lighting was provided with overhead metal halide 1000-Watt lamps as necessary. The plants were employed for testing when they reached the second or third true leaf stage. A weighed amount, determined by the highest rate to be tested, of each test compound was placed in 25 mL glass vials and dissolved in a volume of 97:3 v/v acetone-DMSO to obtain 12× stock solutions. […] The concentrated stock solutions were added to the spray solutions so that the final acetone and DMSO concentrations were 16.2% and 0.5%, respectively. Spray solutions were diluted to the appropriate final concentrations with the addition of 10 mL of an aqueous mixture of 1.5% (v/v) Agri-dex crop oil concentrate. The final spray solutions contained 1.25% (v/v) Agri-dex crop oil concentrate. Compound requirements are based upon a 12 mL application volume at a rate of 187 L/ha. Formulated compounds were applied to the plant material with an overhead Mandel track sprayer equipped with […] nozzles calibrated to deliver 187 L/ha over an application area of 0.503 square meters (m^2) at a spray height of 18 inches (43 cm) above average plant canopy height. Control plants were sprayed in the same manner with the solvent blank. The treated plants and control plants were placed in a greenhouse as described above and watered by sub-irrigation to prevent wash-off of the test compounds. After 20-22 days, the condition of the test plants, compared with that of the untreated plants, was determined visually and scored on a scale of 0 to 100 percent where 0 corresponds to no injury and 100 corresponds to complete kill and are presented as indicated in Table 4. By applying the well-accepted probit analysis as described by J. Berkson in Journal of the American Statistical Society, 48, 565 (1953) and by D. Finney in “Probit Analysis” Cambridge University Press (1952), herbicidal injury of a specific compound at various rates can be used to calculate GR20, GR50, GR80 and GR90 values, which are defined as growth reduction factors that correspond to the effective dose of herbicide required to provide plant growth reduction (GR) of 20 percent, 50 percent, 80 percent and 90 percent, respectively. Probit analysis was applied to data collected from multiple dose rates of individual compounds utilizing the procedures explained in the following examples. The data for some of the dose rates and analysis of all of the dose rates are captured in the following tables.

[1] = BRAPP (broadleaf signalgrass, Brachiaria platyphylla), read-out: Visual Growth Reduction (%) 21 Days After Application BRAPP
[2] = CYPDI (small-flower flatsedge, Cyperus difformis), read-out: Visual Growth Reduction (%) 21 Days After Application CYPDI
[3] = CYPES (yellow nutsedge, Cyperus esculentus), read-out: Visual Growth Reduction (%) 21 Days After Application CYPES
[4] = CYPIR (rice flatsedge, Cyperus iria), read-out: Visual Growth Reduction (%) 21 Days After Application CYPIR
[5] = DIGSA (large crabgrass, Digitaria sanguinalis), read-out: Visual Growth Reduction (%) 21 Days After Application DIGSA
[6] = ECHCG (barnyardgrass, Echinochloa crus-galli), read-out: Visual Growth Reduction (%) 21 Days After Application ECHCG
[7] = ECHCO (junglerice, Echinochloa colonum), read-out: Visual Growth Reduction (%) 21 Days After Application ECHCO
[8] = LEFCH (Chinese sprangletop, Leptochloa chinensis), read-out: Visual Growth Reduction (%) 21 Days After Application LEFCH
[9] = ORYSJ (Oryza sativa, rice crop), read-out: Visual Growth Reduction (%) 21 Days After Application ORYSJ
[10] = ORYSK (Oryza sativa, rice crop), read-out: Visual Growth Reduction (%) 21 Days After Application ORYSK
[11] = SCPJU (Japanese bulrush, Schoenoplectus juncoides Roxb.), read-out: Visual Growth Reduction (%) 21 Days After Application SCPJU
[12] = SEBEX (hemp sesbania, Sesbania exaltata), read-out: Visual Growth Reduction (%) 21 Days After Application SEBEX

## COC(=O)c1nc(-c2ccc3c(c2F)OC(F)(F)O3)cc(N)c1Cl [Compound 37, Methyl 4-amino-3-chloro-6-(2,2,4-trifluorobenzo-[d][1,3]dioxol-5-yl)picolinate]
BRAPP (Brachiaria platyphylla), probit analysis, dose for 50 percent growth reduction
  GR50 BRAPP: 3 g ai/ha
BRAPP (Brachiaria platyphylla), probit analysis, dose for 80 percent growth reduction
  GR80 BRAPP: 15 g ai/ha
BRAPP (Brachiaria platyphylla), probit analysis, dose for 90 percent growth reduction
  GR90 BRAPP: 39 g ai/ha
CYPDI (Cyperus difformis), probit analysis, dose for 50 percent growth reduction
  GR50 CYPDI: 0.04 g ai/ha
CYPDI (Cyperus difformis), probit analysis, dose for 80 percent growth reduction
  GR80 CYPDI: 1 g ai/ha
CYPDI (Cyperus difformis), probit analysis, dose for 90 percent growth reduction
  GR90 CYPDI: 2 g ai/ha
CYPES (Cyperus esculentus), probit analysis, dose for 50 percent growth reduction
  GR50 CYPES: <18 g ai/ha
CYPES (Cyperus esculentus), probit analysis, dose for 80 percent growth reduction
  GR80 CYPES: <18 g ai/ha
CYPES (Cyperus esculentus), probit analysis, dose for 90 percent growth reduction
  GR90 CYPES: <18 g ai/ha
CYPIR (Cyperus iria), probit analysis, dose for 50 percent growth reduction
  GR50 CYPIR: 6 g ai/ha
CYPIR (Cyperus iria), probit analysis, dose for 80 percent growth reduction
  GR80 CYPIR: 23 g ai/ha
CYPIR (Cyperus iria), probit analysis, dose for 90 percent growth reduction
  GR90 CYPIR: 46 g ai/ha
DIGSA (Digitaria sanguinalis), probit analysis, dose for 50 percent growth reduction
  GR50 DIGSA: 0.07 g ai/ha
DIGSA (Digitaria sanguinalis), probit analysis, dose for 80 percent growth reduction
  GR80 DIGSA: 2 g ai/ha
DIGSA (Digitaria sanguinalis), probit analysis, dose for 90 percent growth reduction
  GR90 DIGSA: 8 g ai/ha
ECHCG (Echinochloa crus-galli), probit analysis, dose for 50 percent growth reduction
  GR50 ECHCG: 0.33 g ai/ha
ECHCG (Echinochloa crus-galli), probit analysis, dose for 80 percent growth reduction
  GR80 ECHCG: 4 g ai/ha
ECHCG (Echinochloa crus-galli), probit analysis, dose for 90 percent growth reduction
  GR90 ECHCG: 17 g ai/ha
ECHCO (Echinochloa colonum), probit analysis, dose for 50 percent growth reduction
  GR50 ECHCO: 0.001 g ai/ha
ECHCO (Echinochloa colonum), probit analysis, dose for 80 percent growth reduction
  GR80 ECHCO: 0.2 g ai/ha
ECHCO (Echinochloa colonum), probit analysis, dose for 90 percent growth reduction
  GR90 ECHCO: 3 g ai/ha
LEFCH (Leptochloa chinensis), probit analysis, dose for 50 percent growth reduction
  GR50 LEFCH: 116 g ai/ha
LEFCH (Leptochloa chinensis), probit analysis, dose for 80 percent growth reduction
  GR80 LEFCH: 288 g ai/ha
LEFCH (Leptochloa chinensis), probit analysis, dose for 90 percent growth reduction
  GR90 LEFCH: 464 g ai/ha
ORYSJ (Oryza sativa, rice crop), probit analysis, dose for 20 percent growth reduction
  GR20 ORYSJ: 56 g ai/ha
ORYSK (Oryza sativa, rice crop), probit analysis, dose for 20 percent growth reduction
  GR20 ORYSK: 70 g ai/ha
SCPJU (Schoenoplectus juncoides Roxb.), probit analysis, dose for 50 percent growth reduction
  GR50 SCPJU: 0.0001 g ai/ha
SCPJU (Schoenoplectus juncoides Roxb.), probit analysis, dose for 80 percent growth reduction
  GR80 SCPJU: 0.0001 g ai/ha
SCPJU (Schoenoplectus juncoides Roxb.), probit analysis, dose for 90 percent growth reduction
  GR90 SCPJU: 0.0001 g ai/ha
SEBEX (Sesbania exaltata), probit analysis, dose for 50 percent growth reduction
  GR50 SEBEX: 2 g ai/ha
SEBEX (Sesbania exaltata), probit analysis, dose for 80 percent growth reduction
  GR80 SEBEX: 15 g ai/ha
SEBEX (Sesbania exaltata), probit analysis, dose for 90 percent growth reduction
  GR90 SEBEX: 47 g ai/ha
[1]
  pest or weed control at 17.5 g/ha: 60 to 74%
  pest or weed control at 35 g/ha: 85 to 94%
  pest or weed control at 70 g/ha: 95 to 100%
[2]
  pest or weed control at 17.5 g/ha: 95 to 100%
  pest or weed control at 35 g/ha: 95 to 100%
  pest or weed control at 70 g/ha: 95 to 100%
[3]
  pest or weed control at 17.5 g/ha: 75 to 84%
  pest or weed control at 35 g/ha: 85 to 94%
  pest or weed control at 70 g/ha: 95 to 100%
[4]
  pest or weed control at 17.5 g/ha: 85 to 94%
  pest or weed control at 35 g/ha: 45 to 59%
  pest or weed control at 70 g/ha: 95 to 100%
[5]
  pest or weed control at 17.5 g/ha: 85 to 94%
  pest or weed control at 35 g/ha: 95 to 100%
  pest or weed control at 70 g/ha: 95 to 100%
[6]
  pest or weed control at 17.5 g/ha: 85 to 94%
  pest or weed control at 35 g/ha: 85 to 94%
  pest or weed control at 70 g/ha: 95 to 100%
[7]
  pest or weed control at 17.5 g/ha: 85 to 94%
  pest or weed control at 35 g/ha: 95 to 100%
  pest or weed control at 70 g/ha: 95 to 100%
[8]
  pest or weed control at 17.5 g/ha: 0 to 29%
  pest or weed control at 35 g/ha: 0 to 29%
  pest or weed control at 70 g/ha: 45 to 59%
[9]
  pest or weed control at 17.5 g/ha: 0 to 29%
  pest or weed control at 35 g/ha: 0 to 29%
  pest or weed control at 70 g/ha: 30 to 44%
[10]
  pest or weed control at 17.5 g/ha: 0 to 29%
  pest or weed control at 35 g/ha: 0 to 29%
  pest or weed control at 70 g/ha: 0 to 29%
[11]
  pest or weed control at 17.5 g/ha: 95 to 100%
  pest or weed control at 35 g/ha: 95 to 100%
  pest or weed control at 70 g/ha: 95 to 100%
[12]
  pest or weed control at 17.5 g/ha: 75 to 84%
  pest or weed control at 35 g/ha: 85 to 94%
  pest or weed control at 70 g/ha: 95 to 100%
